Measurements from US5795912A, “Therapeutic composition for corneal impairment” (Senju Pharmaceutical, Co., Ltd., priority 1997, dated 1998).

Tests used:
rats [1] = experiment: LD50, p.o. (rats); assay type: in vivo
rats [2] = experiment: LD50, i.v. (rats); assay type: in vivo
[3] = test system: UV-induced corneal lesion; experiment: Inhibitory effect on UV-induced corneal lesions in rabbits (fluorescein penetration into the cornea, corneal epithelial barrier function); assay type: in vivo, rabbit (white rabbits); conditions: from Table 1 and FIG. 1
Description: The inhibitory effect of the present compound on UV-induced corneal lesions in rabbits was evaluated. Test substance: L-Ascorbyl DL-α-tocopherylphosphate potassium (abbreviation: EPC-K). Method: White rabbits were used; 4 animals assigned to the present compound treatment group and 3 assigned to a control group (the nictitating membrane was excised beforehand).
For UV irradiation, Hoya-Schott's HLS200U (dominant wavelength 365 nm) equipped with a 200 W mercury-xenon lamp as the light source was used. Ushio Electric's Unimeter UIT-101 was used for the determination of luminous energy.
One eye of each rabbit was kept open with an eye speculum and set at a distance of 43 cm from the light source so that the irradiation energy would be 0.024 J/cm^2. […]
The degree of rabbit corneal lesion was evaluated by the following method^1). Using fluorescein as a tracer, the fluorescence intensity of the tracer dye penetrating into the cornea within a predetermined region was measured for a quantitative assessment of the barrier function of the corneal epithelium (The corneal epithelium has a barrier function^2) to restrict penetration of any substance into the deep layer of the cornea and when an erosion or other injury occurs in the corneal epithelium, this barrier function is compromised so that the penetration of the substance into the depth of the cornea is increased). […]

## Cc1c(C)c2c(c(C)c1OP(=O)(O)OC1=C(O)[C@@H]([C@@H](O)CO)OC1=O)CCC(C)(CCCC(C)CCCC(C)CCCC(C)C)O2 (mixture of isomers) [EPC-K, L-ascorbyl DL-α-tocopheryl phosphate potassium]
Rats [1]
  LD50: ≥ 5000 mg/kg
Rats [2]
  LD50: ≥ 100 mg/kg
[3]
  inhibition of UV-induced corneal lesion (result in words): effectively inhibits UV-induced corneal lesion
